Holding throughout (experiment): NCI-60 cell line screen, 48 h
In experiment [1] the test system is OVCAR-8 ovarian.
Experiment [2] relates to EKVX NSCLC.
Experiment [3] has as its system SNB-75 CNS.
The subject of experiment [4] is M14 melanoma.
In experiment [5] the test system is NCI-H522 lung.
For experiment [6], the system named is COLO 205 colon.
Experiment [7] deals with NCI/ADR-RES ovarian.
Experiment [8] relates to BT-549 breast.
Experiment [9] deals with LOX IMVI melanoma.
The test system of experiment [10] is K-562 leukemia.

The text below walks through data of PubChem BioAssay (NCI).

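Step 1: Grow cells in 96-well plates. Step 2: Expose to compound for 48 hours at 5 concentrations. Step 3: Interpolate endpoints linearly; if unreached, use highest concentration. GI50 marks 50% less growth. At the TGI there is no net growth.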

As for `COc1ccc(-c2nc(Nc3ccc(-c4nc5ccccc5[nH]4)cc3)nc(N3CCOCC3)n2)cc1`, the GI50 in [1] was 3.26 µM; in experiment [2], 2.6 µM; in experiment [3] it was 1.8 µM; in [4], 1.94 µM; in experiment [5] it was 2.36 µM; in [6], 1.92 µM. In addition, in experiment [7], the GI50 is 3.18 µM. Moreover, the TGI in experiment [1] is 10.8 µM; in experiment [2], greater than 100 µM; in experiment [3], 10.5 µM; in [4], 4.03 µM; in [5], 5.85 µM; in [6] it was 4.21 µM. This molecule returned a TGI in [7] of 26.7 µM.
As to `COC(=O)c1ccc2c(c1)C(=O)c1c-2n(C)c(=O)c2cc(OC)c(OC)cc12`, the GI50 in experiment [1], in experiment [8], in experiment [2], in experiment [4], in [5] and in [6] was greater than 50 µM in each case. For the same molecule, the GI50 in experiment [7], in [9] and in experiment [10] was greater than 50 µM in each case. The TGI in [1], in experiment [8], in [2], in experiment [4], in [5] and in [6] was greater than 50 µM throughout. In addition, the TGI in experiment [7], in experiment [9] and in experiment [10] was greater than 50 µM in each case.
As to `O=C(NNc1ccc(F)cc1)C1CCC(CNS(=O)(=O)c2ccc(Cl)c(Cl)c2)CC1` (stereo not given), the GI50 in experiment [1] was 8.79 µM; in [8], 19.1 µM; in experiment [2], 7.98 µM; in [4], 7.49 µM; in experiment [5], 22.8 µM; in [6], 14.4 µM. In addition, the GI50 in experiment [7] was 8.79 µM; in experiment [9], 2.08 µM; in experiment [10], 1.71 µM. The TGI in experiment [1] was 35.6 µM; in experiment [8], greater than 50 µM; in experiment [2], greater than 50 µM; in [4] it was greater than 50 µM; in [5], greater than 50 µM; in [6] it was greater than 50 µM. Moreover, the TGI was 31.5 µM in experiment [7], 14.4 µM in experiment [9] and greater than 50 µM in experiment [10].
As to `CC(C)(CCN=C(N)Nc1ccccn1)c1ccc(C(F)(F)F)cc1`, the GI50 in [1] is 17.7 µM; in [8], 15.1 µM; in [2] it was 11.2 µM; in experiment [3] it was 12.9 µM; in [4], 14 µM; in [5] it was 14.5 µM. In addition, the GI50 was 13.3 µM in experiment [6], 17.5 µM in experiment [7] and 14.2 µM in experiment [9]. Besides, the TGI in experiment [1] turned out to be 33.2 µM; in experiment [8] it was 31.2 µM; in [2], 30.5 µM; in experiment [3], 33.8 µM; in experiment [4], 29.6 µM; in experiment [5], 30.8 µM. Further, the TGI in [6] was determined as 28.1 µM; in [7], 32.9 µM; in [9], 27.6 µM.
As to `CN(C)CCC=C1c2ccccc2C(C)(C)c2ccccc21`, the GI50 in experiment [1] was 18.6 µM; in experiment [2] it was 14.4 µM; in [3] it was 2.86 µM; in [4], 2.94 µM; in experiment [5], 17.9 µM; in [6], 3.82 µM. The GI50 in experiment [7] is 17 µM; in experiment [9], 9.46 µM; in experiment [10], 3 µM. For the same molecule, the TGI in [1] is 37.6 µM; in [2], 30 µM; in [3], 17.6 µM; in experiment [4], 9.78 µM; in experiment [5] it was 37.1 µM; in experiment [6] it was 14.3 µM. Also, the values for the TGI in experiment [7], in experiment [9] and in experiment [10] were 34.1 µM, 22 µM and 19 µM, respectively.
With `O=c1c2cccc(F)c2sc2c(N3CCNCC3)nc3ccccc3c12`, the GI50 is 1.51 µM in experiment [1]; 1.58 µM in [8]; 1.59 µM in experiment [2]; 1.16 µM in experiment [3]; 1.71 µM in experiment [4]; 1.45 µM in experiment [5]. Also, the GI50 in [6] is 1.43 µM; in experiment [7] it was 1.6 µM; in experiment [9] it was 1.42 µM. Further, the TGI worked out at 3.42 µM in experiment [1]; 3.06 µM in [8]; 2.99 µM in experiment [2]; 2.41 µM in experiment [3]; 3.17 µM in [4]; 3.18 µM in experiment [5]. Moreover, the TGI in experiment [6] was found to be 3.17 µM; in experiment [7], 3.21 µM; in experiment [9], 2.81 µM.
For `N#Cc1ccsc1NC(=O)COC(=O)c1cccc(S(=O)(=O)N2CCc3ccccc32)c1`, the GI50 is 34 µM in experiment [8]; 68.3 µM in [2]; 29.9 µM in experiment [3]; 34.8 µM in experiment [5]; 27.5 µM in [6]; 27.8 µM in [7]. The GI50 in [9] is 7.69 µM; in [10], 21.3 µM. Moreover, the TGI in experiment [8], in [2], in experiment [3], in experiment [5], in [6] and in [7] was greater than 100 µM each time. Besides, the TGI in experiment [9] and in experiment [10] was greater than 100 µM each time.
Turning to `CCCCCc1cc[n+](CC(=O)c2ccc([N+](=O)[O-])cc2)cc1`, the GI50 was 5.85 µM in [1]; 4.15 µM in [8]; 3.5 µM in experiment [2]; 10.9 µM in experiment [3]; 7.03 µM in [4]; 1.8 µM in experiment [5]. For the same molecule, the GI50 in [6] was 1.62 µM; in [7], 18.5 µM; in experiment [9] it was 8.15 µM. Also, the TGI in experiment [1] was found to be 39.6 µM; in [8], 20.5 µM; in experiment [2] it was 17.5 µM; in [3], 26.6 µM; in experiment [4] it was 22.7 µM; in experiment [5], 8.53 µM. Further, the TGI was determined as 2.97 µM in experiment [6], 52.2 µM in experiment [7] and 22.1 µM in experiment [9].
As for `Cc1ccc(/C=C/C(=N/N=C(N)N)c2ccccc2)cc1`, the GI50 was 2.98 µM in [1]; 10.1 µM in [2]; 2.04 µM in experiment [3]; 1.67 µM in [4]; 1.8 µM in experiment [5]; 1.69 µM in experiment [6]. Besides, the results for the GI50 in [7], in experiment [9] and in experiment [10] were 3.14 µM, 3.28 µM and 0.889 µM, respectively. For the same molecule, the TGI is 10.9 µM in experiment [1]; 28 µM in experiment [2]; 7.41 µM in experiment [3]; 3.95 µM in experiment [4]; 5.12 µM in [5]; 3.74 µM in experiment [6]. For the same molecule, the TGI in [7] is 12 µM; in experiment [9] it was 15.5 µM; in experiment [10] it was 10.4 µM.
Regarding `Cn1cc(-c2csc(-c3cn(CCCCN4CCCCC4)c4ccc(F)cc34)n2)c2cccnc21`, in [8], the GI50 was 1.67 µM and the TGI came out at 3.13 µM.
In the case of `CCC(CCC(C)C1CCC2C3CC=C4CC(OC5OC(CO)C(O)C(O)C5O)CCC4(C)C3CCC12C)C(C)C` (stereo not given), the TGI in experiment [1], in experiment [8], in experiment [2], in [4], in experiment [5] and in [6] was greater than 100 µM throughout. The TGI in [7] and in experiment [9] was greater than 100 µM throughout.
As to `C[C@]12CC[C@H]3[C@@H](CCC4=CC(=O)CC[C@@]43C)[C@@H]1CC[C@@H]2C(=O)COS(=O)(=O)c1ccc(Br)cc1`, the TGI in experiment [1] was determined as 14.3 µM; in experiment [8] it was 50.5 µM; in experiment [2] it was 21.3 µM; in experiment [3], 41.8 µM; in experiment [4], 23.8 µM; in experiment [5], 2.97 µM. Besides, the TGI in [6] was 53.1 µM; in [7], greater than 100 µM; in experiment [10], 31.7 µM.
`O=C(O)C1C2C=CC(C2)C1C(=O)O` (stereo not given): the GI50 in experiment [1], in experiment [8], in experiment [3], in [4], in [5] and in [6] was greater than 100 µM in each case. For the same molecule, the GI50 in [7], in experiment [9] and in experiment [10] was greater than 100 µM throughout. Moreover, the TGI in [1], in [8], in experiment [3], in experiment [4], in experiment [5] and in experiment [6] was greater than 100 µM in each case. Moreover, the TGI in [7], in experiment [9] and in experiment [10] was greater than 100 µM throughout.
As for `CCN(Cc1ccccc1Cl)c1ccc(CO)c(Cl)c1`, the GI50 in experiment [1] was 12.8 µM; in [8], 15.8 µM; in [3], 7.13 µM; in [4], 15.3 µM; in experiment [5], 11.5 µM; in experiment [6], 5.72 µM. For the same molecule, the GI50 in experiment [7] was 12.2 µM; in experiment [9] it was 16 µM; in experiment [10], 1.63 µM. The TGI in experiment [1] stood at 27.1 µM; in [8], 29.9 µM; in [3], 21.8 µM; in experiment [4], 31.7 µM; in experiment [5] it was 25.4 µM; in [6], 16.3 µM. In addition, the results for the TGI in experiment [7], in [9] and in experiment [10] were 26.5 µM, 30.5 µM and 14.6 µM, respectively.
As to `CCOC(=O)c1ccc2c(c1)nc(/C=C/c1ccc(Cl)cc1)n2-c1cc(C(C)(C)C)[nH]n1`, the GI50 in experiment [1] is 5.31 µM; in experiment [8], 4.54 µM; in experiment [3] it was 1.9 µM; in [4] it was 20.9 µM; in [5], 2.84 µM; in experiment [6] it was 28.6 µM. The GI50 is 10.1 µM in experiment [7] and 4.41 µM in experiment [10]. Also, the TGI is 33.9 µM in [1]; 25.6 µM in experiment [8]; 5.51 µM in experiment [3]; greater than 100 µM in experiment [4]; 10.6 µM in experiment [5]; greater than 100 µM in [6]. Moreover, the TGI in experiment [7] and in experiment [10] was greater than 100 µM in each case.
On to `CC(=O)OC12c3ccccc3-c3ccccc3C1C(C(=O)O)C2(Cl)C(=O)O` (stereo not given), for which the TGI in experiment [1], in experiment [2], in experiment [3], in experiment [4], in [5] and in experiment [6] was greater than 10 µM in each case. The TGI in [7], in [9] and in experiment [10] was greater than 10 µM each time.
Turning to `O=[N+]([O-])c1ccc(Sc2nc(Cl)nc(NC3CCCC3)n2)cc1`, the GI50 in experiment [1], in experiment [8], in [3], in [4], in [6] and in experiment [7] was greater than 10 µM throughout. For the same molecule, the GI50 was greater than 10 µM in experiment [9] and 5.89 µM in experiment [10]. Further, the TGI in experiment [1], in experiment [8], in experiment [3], in [4], in [6] and in experiment [7] was greater than 10 µM throughout. For the same molecule, the TGI in experiment [9] and in [10] was greater than 10 µM in each case.
As for `O=C1C(Nc2ccc(Br)cc2)=C(I)C(=O)c2ncccc21`, the GI50 in experiment [1] is 0.809 µM; in [8] it was 1.85 µM; in experiment [2] it was 3.08 µM; in experiment [3], 1.24 µM; in [4] it was 0.815 µM; in [6], 1.19 µM. In addition, the GI50 in experiment [7] was 1.14 µM; in experiment [9], 0.668 µM; in [10] it was 0.499 µM. Besides, the TGI in experiment [1] turned out to be 1.69 µM; in [8], 5.9 µM; in experiment [2], 9.52 µM; in [3] it was 7 µM; in [4] it was 1.93 µM; in [6], 3.49 µM. Also, the TGI in [7] was found to be 3.32 µM; in experiment [9], 1.41 µM; in experiment [10] it was 3.61 µM.
